In paper PMC2813863, “In Vivo Evaluation of α7 Nicotinic Acetylcholine Receptor Agonists [^11C]A-582941 and [^11C]A-844606 in Mice and Conscious Monkeys” (PLoS ONE, 2010):

Columns and labels:
[1] = molecular target: α7 nAChRs (Mus musculus, UniProt P49582); conditions: in vivo
Method: In the other group of mice, a blocking experiment to determine the α7 nAChRs-specific regional brain uptake of the tracers was carried out. Each tracer (2 MBq/0.055–0.096 nmol) was co-injected with each of the following blockers into mice, and 15 ([^11C]A-582941) or 30 ([^11C]A-844606) min later the mice were killed (n = 5) and the tissue uptake of ^11C was expressed as the %ID/g. […] Each blocker was dissolved in 1N HCl to 40 mg/ml and diluted up to 0.4 mg/ml with saline. The co-injected dose was 1 mg/kg. In the control mice the same amount of 0.01 N HCl in saline was co-injected.

[2] = molecular target: α7 nAChRs (Macaca mulatta, UniProt Q866A2); conditions: rhesus monkey, in vivo
Source text: Four young-adult male rhesus monkeys (Macaca mulatta) weighing from 4 to 6 kg were used for PET measurements. The monkeys were trained for the protocol as described previously. The magnetic resonance images (MRI) of all monkeys were obtained with a Toshiba MRT-50A/II (0.5T) under anesthesia with pentobarbital. The stereotactic coordinates of PET and MRI were adjusted based on the orbitomeatal (OM) line with monkeys secured in a specially designed head holder. At least 1 month before the PET study, an acrylic plate, with which the monkey was fixed to the monkey chair, was attached to the head under pentobarbital anesthesia as described previously.
PET data were collected on a high-resolution PET scanner (SHR-7700; Hamamatsu Photonics K.K., Hamamatsu, Japan). The camera consists of 16 detector rings and acquires 20 slices at a center-to-center interval of 3.6 mm with a transaxial resolution of 2.6 mm full width at half maximum. After an overnight fast, the monkey was fixed to the monkey chair with stereotactic coordinates aligned parallel to the OM line. A cannula was implanted in the posterior tibial vein, and [^11C]A-582941 or [^11C]A-844606 (1152–1336 MBq/26.8–63.1 nmol) was injected into the monkey through the venous cannula. PET images were acquired over 91 min (10 sec ×6 frames, 30 sec ×6 frames, 1 min ×12 frames, and 3 min ×25 frames). PET scans were reconstructed using a filtered backprojection method in a 100×100 matrix, with a voxel size of 1.2 mm ×1.2 mm ×3.6 mm. Summed image of late phase (from 70 to 91 min post-injection) was calculated as a static SUV (activity/ml tissue)/(injected activity/g body weight) image. Each MRI was coregistered to an early (from 0 to 20 min) summed image using normalized mutual information, and ROIs were placed on the summed image with reference to the coregistered MRI. Three monkeys underwent [^11C]A-582941 scan morning, and then two of the three monkeys underwent [^11C]A-844606 afternoon (baseline). Within 6 months the last one of the three monkeys underwent two [^11C]A-844606 scans in the baseline (morning) and blocking (afternoon) conditions 30 min after injection of SSR180711 (5.0 mg/kg, i.v.), and the fourth monkey underwent two [^11C]A-582941 scans in the baseline and blocking conditions in the same way.
For the semi-quantitative analysis of PET data, arterial samples were obtained every 8 sec from injection to 64 sec, and then again at 1.5, 2.5, 4, 6, 10, 20, 30, 45, 60, and 90 min after each tracer injection. Blood samples were centrifuged to separate the plasma, weighed, and subjected to radioactivity measurement. For metabolite analysis, methanol was added to some plasma samples, the resulting solutions were centrifuged, and the supernatants were developed with TLC plates (AL SIL G/UV; Whatman, Kent, UK) using a mobile phase of dichloromethane/diethyl ether/ethanol/triethylamine (20/20/2/2, v/v/v/v). At each sampling time point, the ratio of radioactivity in the unmetabolized fraction to that in the total plasma (metabolite plus unmetabolite) was determined using a phosphoimaging plate (BAS-1500 MAC; Fuji Film Co., Tokyo, Japan). The pTACs corrected for metabolite were obtained. The tTACs in each region of interest (ROI) in the brain were calculated as the %ID/ml or as a standardized uptake value (SUV), (activity/ml tissue)/(injected activity/g body weight). Using the tTACs and the metabolite-corrected pTAC, the V T for each tracer was evaluated by Logan graphical analysis.

α7 nAChRs (Macaca mulatta, UniProt Q866A2), sequence (Q866A2 23-502): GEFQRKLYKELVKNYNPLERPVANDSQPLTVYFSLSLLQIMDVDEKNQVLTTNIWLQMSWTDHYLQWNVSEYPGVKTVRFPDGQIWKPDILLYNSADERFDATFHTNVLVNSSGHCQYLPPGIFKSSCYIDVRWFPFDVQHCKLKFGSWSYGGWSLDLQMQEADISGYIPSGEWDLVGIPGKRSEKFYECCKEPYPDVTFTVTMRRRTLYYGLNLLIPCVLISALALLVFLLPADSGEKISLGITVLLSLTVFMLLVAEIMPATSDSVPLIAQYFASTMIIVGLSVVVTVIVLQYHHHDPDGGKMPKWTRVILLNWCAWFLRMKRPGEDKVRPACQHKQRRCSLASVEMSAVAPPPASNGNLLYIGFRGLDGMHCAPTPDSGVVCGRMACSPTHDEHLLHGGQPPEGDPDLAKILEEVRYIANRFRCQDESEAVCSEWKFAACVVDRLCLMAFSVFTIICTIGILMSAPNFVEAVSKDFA
α7 nAChRs (Mus musculus, UniProt P49582), sequence (P49582 23-502): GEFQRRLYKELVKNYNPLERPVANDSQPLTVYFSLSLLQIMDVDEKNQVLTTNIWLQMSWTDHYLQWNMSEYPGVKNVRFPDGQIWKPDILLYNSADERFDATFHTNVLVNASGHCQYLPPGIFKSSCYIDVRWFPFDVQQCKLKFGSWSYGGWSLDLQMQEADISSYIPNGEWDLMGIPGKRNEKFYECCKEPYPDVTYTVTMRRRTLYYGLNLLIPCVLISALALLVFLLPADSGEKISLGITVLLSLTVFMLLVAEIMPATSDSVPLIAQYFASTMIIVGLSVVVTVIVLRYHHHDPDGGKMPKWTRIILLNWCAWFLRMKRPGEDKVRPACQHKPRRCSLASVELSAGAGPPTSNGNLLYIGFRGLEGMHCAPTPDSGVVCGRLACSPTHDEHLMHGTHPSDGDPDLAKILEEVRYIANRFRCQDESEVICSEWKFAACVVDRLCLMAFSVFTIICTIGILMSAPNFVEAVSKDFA

Question: Which results are given for `[11CH3]N1CC2CN(c3ccc(-c4ccccc4)nn3)CC2C1` (stereo not shown) [[^11C]A-582941, 2-[^11C]Methyl-5-[6-phenylpyridazine-3-yl]octahydropyrrolo[3,4-c]pyrrole]?
Answer: % Injected dose/g tissue, Blood [1]: 0.88±0.10 % Injected dose/g tissue; % Injected dose/g tissue, Cerebellum [1]: 3.71±0.19 % Injected dose/g tissue; % Injected dose/g tissue, Cerebral cortex [1]: 4.59±0.25 % Injected dose/g tissue; % Injected dose/g tissue, Hippocampus [1]: 4.05±0.52 % Injected dose/g tissue; % Injected dose/g tissue, Hypothalamus [1]: 3.51±0.60 % Injected dose/g tissue; % Injected dose/g tissue, Medulla oblongata [1]: 4.23±0.08 % Injected dose/g tissue; % Injected dose/g tissue, Midbrain [1]: 4.09±0.52 % Injected dose/g tissue; % Injected dose/g tissue, Striatum [1]: 4.03±0.45 % Injected dose/g tissue; % Injected dose/g tissue, Whole brain [1]: 4.23±0.23 % Injected dose/g tissue; V T Baseline, Cerebellum ([2]; male): 25.4 mL/g; V T Baseline, Frontal cortex ([2]; male): 34.5 mL/g; V T Baseline, Hippocampus ([2]; male): 31.6 mL/g; V T Baseline, Thalamus ([2]; male): 34.0 mL/g; V T SSR180711, Cerebellum ([2]; male): 17.3 mL/g; V T SSR180711, Frontal cortex ([2]; male): 23.0 mL/g; V T SSR180711, Hippocampus ([2]; male): 20.4 mL/g; V T SSR180711, Thalamus ([2]; male): 23.6 mL/g; V T, cerebellum (mean ± SD) ([2]; male): 23.0±3.4; V T, cerebellum (range) ([2]; male): 18.0–25.4; V T, frontal cortex (mean ± SD) ([2]; male): 29.2±4.7; V T, frontal cortex (range) ([2]; male): 23.2–34.5; V T, hippocampus (mean ± SD) ([2]; male): 28.0±3.8; V T, hippocampus (range) ([2]; male): 22.8–31.6; V T, thalamus (mean ± SD) ([2]; male): 30.4±4.1; V T, thalamus (range) ([2]; male): 24.6–34.0; time of peak radioactivity in the four brain regions (thalamus, frontal cortex, hippocampus, cerebellum) ([2]; male): 10 min; % decrease of V T, Cerebellum [2]: 32.0%; % decrease of V T, Frontal cortex [2]: 33.4%; % decrease of V T, Hippocampus [2]: 35.5%; % decrease of V T, Thalamus [2]: 30.5%; decrease of V T by pretreatment with SSR180711 [2]: ~30%
